{
  "source": "paper PMC6704710",
  "about": "“Preclinical evaluation of 3D185, a novel potent inhibitor of FGFR1/2/3 and CSF-1R, in FGFR-dependent and macrophage-dominant cancer models” (Journal of Experimental & Clinical Cancer Research : CR, 2019)",
  "key": {"AMPKα2(h)": {"biological_target": "T1, AMPKα2(h) (Homo sapiens, UniProt P54646)", "T1 construct": "purchased Eurofins (KinaseProfiler)", "assay": "Eurofins kinase panel", "format": "biochemical", "conditions": "read-out: Inhibition rate (%)"}, "CLK2(h)": {"biological_target": "T2, CLK2(h) (Homo sapiens, UniProt P49760)", "T2 construct": "purchased Eurofins (KinaseProfiler)", "assay": "Eurofins kinase panel", "format": "biochemical", "conditions": "read-out: Inhibition rate (%)"}, "HIPK4(h)": {"biological_target": "T3, HIPK4(h) (Homo sapiens, UniProt Q8NE63)", "T3 construct": "purchased Eurofins (KinaseProfiler)", "T3 sequence (Q8NE63 1-616)": "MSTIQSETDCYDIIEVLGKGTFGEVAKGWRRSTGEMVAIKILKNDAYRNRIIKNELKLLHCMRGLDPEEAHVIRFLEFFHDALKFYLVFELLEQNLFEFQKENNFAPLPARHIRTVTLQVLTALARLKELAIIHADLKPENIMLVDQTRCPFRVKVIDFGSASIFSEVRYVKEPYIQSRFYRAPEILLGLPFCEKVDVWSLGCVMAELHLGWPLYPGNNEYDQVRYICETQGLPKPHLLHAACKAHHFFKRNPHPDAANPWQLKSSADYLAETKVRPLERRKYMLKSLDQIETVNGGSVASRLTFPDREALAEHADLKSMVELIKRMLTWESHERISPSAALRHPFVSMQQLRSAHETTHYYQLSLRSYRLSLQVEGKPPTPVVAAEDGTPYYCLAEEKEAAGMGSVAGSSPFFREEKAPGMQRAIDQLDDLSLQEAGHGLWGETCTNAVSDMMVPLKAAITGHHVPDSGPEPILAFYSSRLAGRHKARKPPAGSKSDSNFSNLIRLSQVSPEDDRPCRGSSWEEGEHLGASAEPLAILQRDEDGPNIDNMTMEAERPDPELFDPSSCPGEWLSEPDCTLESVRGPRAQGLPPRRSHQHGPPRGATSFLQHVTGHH", "assay": "Eurofins kinase panel", "format": "biochemical", "conditions": "read-out: Inhibition rate (%)"}, "PKCη(h)": {"biological_target": "T4, PKCη(h) (Homo sapiens, UniProt P24723)", "T4 construct": "purchased Eurofins (KinaseProfiler)", "assay": "Eurofins kinase panel", "format": "biochemical", "conditions": "read-out: Inhibition rate (%)"}, "SGK3(h)": {"biological_target": "T5, SGK3(h) (Homo sapiens, UniProt Q96BR1)", "T5 construct": "purchased Eurofins (KinaseProfiler)", "T5 sequence (Q96BR1 1-496)": "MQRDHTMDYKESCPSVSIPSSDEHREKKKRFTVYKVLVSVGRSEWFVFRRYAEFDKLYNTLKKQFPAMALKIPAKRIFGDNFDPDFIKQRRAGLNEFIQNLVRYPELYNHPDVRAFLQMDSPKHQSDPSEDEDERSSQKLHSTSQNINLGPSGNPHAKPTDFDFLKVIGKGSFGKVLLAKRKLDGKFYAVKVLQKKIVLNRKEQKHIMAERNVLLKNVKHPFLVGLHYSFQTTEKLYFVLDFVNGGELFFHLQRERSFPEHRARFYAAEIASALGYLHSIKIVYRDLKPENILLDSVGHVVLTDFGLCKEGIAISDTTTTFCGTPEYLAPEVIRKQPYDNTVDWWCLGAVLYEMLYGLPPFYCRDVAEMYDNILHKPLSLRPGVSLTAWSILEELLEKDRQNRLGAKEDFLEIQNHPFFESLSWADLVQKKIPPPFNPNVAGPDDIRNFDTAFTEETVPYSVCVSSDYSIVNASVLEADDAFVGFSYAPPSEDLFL", "assay": "Eurofins kinase panel", "format": "biochemical", "conditions": "read-out: Inhibition rate (%)"}, "A375": {"tested_on": "A375", "assay": "Cell proliferation assay", "format": "cell-based", "conditions": "Homo sapiens, A-375; Fig. 2G", "procedure": "(§1) The cancer cell lines indicated in Figure 3 were seeded in 96-well plates at a low density in growth medium. The next day, appropriate controls or the designated concentrations of the compounds were added to each well, and the cells were incubated for 72 h. HUVECs (passage 3) were seeded in 96-well plates in growth medium overnight and transferred to serum-free medium for 24 h. The following day, appropriate controls or the designated concentrations of the compounds were added to each well, and 100 ng/mL growth factor (bFGF or VEGF) was added to the indicated wells. The cells were incubated for 48 h. Finally, cell proliferation was determined using a sulforhodamine B (SRB) assay or a cell counting kit-8 (CCK-8) assay. […] IC50 values for proliferation curves were calculated using a 4-parameter logistic nonlinear regression model with SoftMax Pro Software (Molecular Devices, San Jose, USA)."}, "BGC-823": {"tested_on": "BGC-823", "assay": "Cell proliferation assay", "format": "cell-based", "conditions": "Homo sapiens, Fig. 2G", "procedure": "as §1"}, "CAL51": {"tested_on": "CAL51", "assay": "Cell proliferation assay", "format": "cell-based", "conditions": "Homo sapiens, CAL-51; Fig. 2G", "procedure": "as §1"}, "EBC-1": {"tested_on": "EBC-1", "assay": "Cell proliferation assay", "format": "cell-based", "conditions": "Homo sapiens, Fig. 2G", "procedure": "as §1"}, "HCC1954": {"tested_on": "HCC1954", "assay": "Cell proliferation assay", "format": "cell-based", "conditions": "Homo sapiens, Fig. 2G", "procedure": "as §1"}, "HCC366": {"tested_on": "HCC366", "assay": "Cell proliferation assay", "format": "cell-based", "conditions": "Homo sapiens, Fig. 2G", "procedure": "as §1"}, "HCC78": {"tested_on": "HCC78", "assay": "Cell proliferation assay", "format": "cell-based", "conditions": "Homo sapiens, Fig. 2G", "procedure": "as §1"}, "MCF-7": {"tested_on": "MCF-7", "assay": "Cell proliferation assay", "format": "cell-based", "conditions": "Homo sapiens, MCF7; Fig. 2G", "procedure": "as §1"}, "MDA-MB-453": {"tested_on": "MDA-MB-453", "assay": "Cell proliferation assay", "format": "cell-based", "conditions": "Homo sapiens, Fig. 2G", "procedure": "as §1"}, "MKN1": {"tested_on": "MKN1", "assay": "Cell proliferation assay", "format": "cell-based", "conditions": "Homo sapiens, MKN-1; Fig. 2G", "procedure": "as §1"}, "MKN28": {"tested_on": "MKN28", "assay": "Cell proliferation assay", "format": "cell-based", "conditions": "Homo sapiens, MKN-28; Fig. 2G", "procedure": "as §1"}, "MKN45": {"tested_on": "MKN45", "assay": "Cell proliferation assay", "format": "cell-based", "conditions": "Homo sapiens, MKN-45; Fig. 2G", "procedure": "as §1"}, "NCI-H1299": {"tested_on": "NCI-H1299", "assay": "Cell proliferation assay", "format": "cell-based", "conditions": "Homo sapiens, Fig. 2G", "procedure": "as §1"}, "NCI-H1975": {"tested_on": "NCI-H1975", "assay": "Cell proliferation assay", "format": "cell-based", "conditions": "Homo sapiens, Fig. 2G", "procedure": "as §1"}, "NCI-H2444": {"tested_on": "NCI-H2444", "assay": "Cell proliferation assay", "format": "cell-based", "conditions": "Homo sapiens, Fig. 2G", "procedure": "as §1"}, "NCI-H460": {"tested_on": "NCI-H460", "assay": "Cell proliferation assay", "format": "cell-based", "conditions": "Homo sapiens, Fig. 2G", "procedure": "as §1"}, "NCI-H520": {"tested_on": "NCI-H520", "assay": "Cell proliferation assay", "format": "cell-based", "conditions": "Homo sapiens, Fig. 2G", "procedure": "as §1"}, "SGC-7901": {"tested_on": "SGC-7901", "assay": "Cell proliferation assay", "format": "cell-based", "conditions": "Homo sapiens, Fig. 2G", "procedure": "as §1"}, "SK-BR-3": {"tested_on": "SK-BR-3", "assay": "Cell proliferation assay", "format": "cell-based", "conditions": "Homo sapiens, Fig. 2G", "procedure": "as §1"}, "T47D": {"tested_on": "T47D", "assay": "Cell proliferation assay", "format": "cell-based", "conditions": "Homo sapiens, Fig. 2G", "procedure": "as §1"}},
  "data": [
    {"molecule": "COc1cc(OC)c(Cl)c(-c2ccc3c(NC(=O)c4ccc(N5CCNC(C)(C)C5)cc4)n[nH]c3n2)c1Cl", "note": "[3D185]", "values": [
      {"measurement": "inhibition at 0.01 µM", "setting": "AMPKα2(h); 10 nM", "result": -4, "unit": "%"},
      {"measurement": "inhibition at 0.1 µM", "setting": "AMPKα2(h); 100 nM", "result": -8, "unit": "%"},
      {"measurement": "inhibition at 1 µM", "setting": "AMPKα2(h); 1000 nM", "result": 9, "unit": "%"},
      {"measurement": "inhibition at 0.01 µM", "setting": "CLK2(h); 10 nM", "result": 5, "unit": "%"},
      {"measurement": "inhibition at 0.1 µM", "setting": "CLK2(h); 100 nM", "result": 3, "unit": "%"},
      {"measurement": "inhibition at 1 µM", "setting": "CLK2(h); 1000 nM", "result": 7, "unit": "%"},
      {"measurement": "inhibition at 0.01 µM", "setting": "HIPK4(h); 10 nM", "result": 1, "unit": "%"},
      {"measurement": "inhibition at 0.1 µM", "setting": "HIPK4(h); 100 nM", "result": -17, "unit": "%"},
      {"measurement": "inhibition at 1 µM", "setting": "HIPK4(h); 1000 nM", "result": 16, "unit": "%"},
      {"measurement": "inhibition at 0.01 µM", "setting": "PKCη(h); 10 nM", "result": -10, "unit": "%"},
      {"measurement": "inhibition at 0.1 µM", "setting": "PKCη(h); 100 nM", "result": -1, "unit": "%"},
      {"measurement": "inhibition at 1 µM", "setting": "PKCη(h); 1000 nM", "result": -9, "unit": "%"},
      {"measurement": "inhibition at 0.01 µM", "setting": "SGK3(h); 10 nM", "result": 3, "unit": "%"},
      {"measurement": "inhibition at 0.1 µM", "setting": "SGK3(h); 100 nM", "result": 2, "unit": "%"},
      {"measurement": "inhibition at 1 µM", "setting": "SGK3(h); 1000 nM", "result": 14, "unit": "%"},
      {"measurement": "IC50", "setting": "A375", "result": "> 1000", "unit": "nM"},
      {"measurement": "IC50", "setting": "BGC-823", "result": "> 1000", "unit": "nM"},
      {"measurement": "IC50", "setting": "CAL51", "result": "> 1000", "unit": "nM"},
      {"measurement": "IC50", "setting": "EBC-1", "result": "> 1000", "unit": "nM"},
      {"measurement": "IC50", "setting": "HCC1954", "result": "> 1000", "unit": "nM"},
      {"measurement": "IC50", "setting": "HCC366", "result": "> 1000", "unit": "nM"},
      {"measurement": "IC50", "setting": "HCC78", "result": "> 1000", "unit": "nM"},
      {"measurement": "IC50", "setting": "MCF-7", "result": "> 1000", "unit": "nM"},
      {"measurement": "IC50", "setting": "MDA-MB-453", "result": "> 1000", "unit": "nM"},
      {"measurement": "IC50", "setting": "MKN1", "result": "> 1000", "unit": "nM"},
      {"measurement": "IC50", "setting": "MKN28", "result": "> 1000", "unit": "nM"},
      {"measurement": "IC50", "setting": "MKN45", "result": "> 1000", "unit": "nM"},
      {"measurement": "IC50", "setting": "NCI-H1299", "result": "> 1000", "unit": "nM"},
      {"measurement": "IC50", "setting": "NCI-H1975", "result": "> 1000", "unit": "nM"},
      {"measurement": "IC50", "setting": "NCI-H2444", "result": "> 1000", "unit": "nM"},
      {"measurement": "IC50", "setting": "NCI-H460", "result": "> 1000", "unit": "nM"},
      {"measurement": "IC50", "setting": "NCI-H520", "result": "> 1000", "unit": "nM"},
      {"measurement": "IC50", "setting": "SGC-7901", "result": "> 1000", "unit": "nM"},
      {"measurement": "IC50", "setting": "SK-BR-3", "result": "> 1000", "unit": "nM"},
      {"measurement": "IC50", "setting": "T47D", "result": "> 1000", "unit": "nM"}
    ]}
  ]
}
